Source: patent publication EP0340198B1, “Immunoassay for the detection of alpha-haloacetamides” (priority 1988, dated 1989)

What was measured:
[1] = test system: alachlor antibodies; experiment: inhibition ELISA for alachlor (cross-reactivity studies); format: binding, rabbit; settings: for reaction (cross-reactivity) with the antibodies, in words: relative to alachlor
Description: Immunoassays. A known "checkerboard assay" was initially conducted with each serum sample after the first boost to detect the production of antibodies against alachlor. […] The next 7 rows received the subsequent dilutions of the screening antigen. The plate was covered with Parafilm and stored overnight at 4°C. The next morning, the unbound screening antigen was removed from the wells by washing three times with phosphate buffered saline solution (0.01 M phosphate buffer of pH 7.4, 0.15 M NaCl; PBS). The remaining active sites in the wells were blocked with PBS-8% non-fat dry milk solution, (NFDM, 0.3 mL) for 1 hr at 22°C. Serum, which had been stored at -20°C, was freshly thawed and serially diluted (one to two) from 1,000 to 64,000-fold using PBS-T (PBS containing 0.02% Tween 20). Starting with the most concentrated solution, 0.1 mL of the serum solution was pipetted into all 8 wells of column 1; the remaining columns received the subsequent dilutions of the serum solution. The plate was covered and incubated at 22°C for 1.5 hrs. Following triplicate washes of the wells with PBS-T, each of the wells received 0.1 mL of goat anti-rabbit gamma-globulin conjugated to horseradish peroxidase (GAR-HRP) freshly thawed and diluted 4,000 fold with PBS-1% NFDM. After a final wash cycle (4 times) with PBS-T, freshly prepared O-phenylene diamine (PDA) substrate solution (0.2 mL, 0.04 mg/mL PDA and 0.01% H₂O₂ in 0.05 M citric acid and 0.15 M sodium dibasic phosphate, pH 5.0) was dispensed into each of the wells and incubated in the dark at 22°C for 30-60 min. Sulfuric acid (4 N, 50 µL) was added to each of the wells to stop the reaction, and the final absorbances of the wells (490 nm) were recorded.
The inhibition ELISA required one additional step in the assay procedure described above. Equal volumes of the diluted serum and aqueous alachlor standard or unknown sample were mixed and preincubated at 22°C for 1 hr. This mixture (0.1 mL/well) was then analyzed in 6 replicate wells on the plate. The presence of free alachlor inhibited the binding of the antibody to the alachlor-BSA conjugate, resulting in an inhibition of the development of absorbance at 490 nm. The amount of free alachlor was indirectly proportional to the intensity of color developed. Levels of alachlor in unknown water samples were calculated based on the alachlor standards on the same plate. Alachlor standards (0, 0.2, 0.5, 1.0, 3.0, 5.0, and 8.0 ppb in deionized water) were stored at -20°C in 1-mL portions, and were freshly thawed for each assay.
Data Calculations. The lay-out of a typical 96-well microtiter plate is 8 rows of 12 columns in an inhibition ELISA assay for alachlor. The first 6 wells in the first column of wells were not coated with the screening antigen and served as the background wells. The first 6 wells in the remaining 7 columns of wells were reserved for the seven alachlor standards (0 to 8 ppb) listed above. The remaining wells in all 8 rows were used for the samples. The uncorrected absorbances of the wells determined by the Bio-tek reader were used in the following calculations. The median was calculated for the 6 replicate background wells and was then subtracted from the medians of the standards and samples. All the median values were divided by the median of the standard without alachlor (0 ppb) to generate percentages of absorbances. The percent absorbance of the alachlor standards was then plotted on the Y axis against the logarithm (base 10) of the actual concentrations of alachlor on the X axis. A hyperbolic curve was drawn through the standards, and the resulting standard curve was used to calculate the concentrations of alachlor in the unknown samples.
The calculations described above were usually carried out using a computer program.

[2] = test system: antibodies toward butachlor; experiment: inhibition ELISA for butachlor; format: binding, rabbits; settings: for inhibition of the ELISA assay for butachlor: standard solutions at 10 and 50 ppb in DI water
Text: (§1) The generation of antibodies toward butachlor (2-chloro-2′,6′-diethyl-N-(butoxymethyl)acetanilide), amidochlor (2-chloro-2′,6′-diethyl-N-acetamidomethyl acetanilide), and metolachlor (2-chloro-2′-ethyl-6′-methyl-N-(2-methoxy-1-methylethyl)acetanilide) were accomplished following identical procedures as those described for alachlor. The individual 14C-labeled chloroacetanilide was covalently bound to HSA (human serum albumin) with AHT, and to sheep IgG with AMSA.
(§2) The hapten-IgG conjugates were used to immunize rabbits. The corresponding hapten-BSA conjugates were then utilized in checkerboard assays to determine the presence of desired antibodies in the antisera. An inhibition ELISA for butachlor was set up with antiserum, butachlor-HSA screening antigen, and butachlor. Similar assays were also set up for amidochlor and metolachlor.
(§3) The sensitivity of the inhibition ELISA for butachlor, amidochlor, and metolachlor was tested with respective standards prepared in DI water. Using the best antiserum, the butachlor ELISA produced an IC50 of 8 ppb.
(§4) The specificity of the ELISA for butachlor, amidochlor, and metolachlor were tested using standard solutions of alachlor, acetochlor, butachlor, amidochlor, metolachlor, and propachlor at concentrations of 10 and 50 ppb in DI water. At these concentrations, the ELISA assay for butachlor, amidochlor, and metolachlor was each inhibited only by the respective free hapten, and not by any of the other chloroacetanilides.

[3] = test system: antibodies toward metolachlor; experiment: inhibition ELISA for metolachlor; format: binding, rabbits; settings: for inhibition of the ELISA assay for metolachlor: standard solutions at 10 and 50 ppb in DI water
Text: as §1, §2, §3, §4

[4] = test system: antibodies toward amidochlor; experiment: inhibition ELISA for amidochlor; format: binding, rabbits; settings: for inhibition of the ELISA assay for amidochlor: standard solutions at 10 and 50 ppb in DI water
Text: as §1, §2, §3, §4

[5] = test system: antibodies isolated from the serum of the first bleed of the rabbit; experiment: affinity column binding of 14C-labeled analytes from aqueous solution; settings: 14C-labeled analogs, test of non-specific binding
Description: Affinity Chromatography. The preparation of affinity columns using rabbit antisera was as follows: The rabbit IgG's were purified by passing 5 mL of the antiserum through a column containing 5 mL of the swelled protein A-agarose gel. By monitoring the absorbance at 280 nm in the column effluent, the non-bound proteins were removed by washing with PBS, and the IgG's were then eluted with acetic acid at pH 2.3 (0.58% acetic acid and 0.15 M NaCl). The fractions containing the IgG's were combined and neutralized; based on the UV absorbance at 280 nm (absorbance/1.4 = mg/mL protein), approximately 33 mg of IgG were isolated from 5 mL of serum, which was then lyophilized and stored at -20°C. The reusable protein A-agarose column was stored in PBS containing 0.02% sodium azide at 4°C.
The protein A-purified IgG was immobilized onto Affigel-10 affinity support. Affigel-10 (5 mL) was washed 3 times with isopropyl alcohol and 3 times with cold distilled water in a Buchner funnel. The gel was then added to a solution of IgG (3 mL in 0.1 M HEPES buffer, pH 7.5) at 4°C. Following 4 hrs of stirring, the gel was precipitated by gentle centrifugation and washed with HEPES buffer (3 x 3 mL). The remaining active sites on the gel were blocked by resuspending the gel in water (2 mL) and adding ethanolamine HCl (0.5 mL, 1M), and stirring the mixture at 22°C for 1 hr. The affinity column was useful in adsorbing alachlor and other analytes from aqueous solutions. After binding the alachlor, the column was washed with water (2 mL/min) to remove unbound material and alachlor was eluted with 75% aqueous methanol.
Using the antibodies isolated from the serum of the first bleed of the rabbit, an affinity column for alachlor was constructed to study its utility as an isolation and purification tool. The IgG's in the serum of the rabbit immunized with the alachlor-IgG conjugate were purified with a protein A-agarose column. The purified IgG was then immobilized onto the Affigel-10 support. Alachlor (¹⁴C-labeled) in aqueous solution was passed through the column with a flow rate of 2 mL/min; the column was washed with water and eluted with 75% aqueous methanol. The radioactivity in the wash and eluent were determined by liquid scintillation counting. […] The capacity of the column was less than 1 µg, and once this level was exceeded, alachlor no longer bound to the column. The recovery of applied radioactivity generally ranged from 80% to 100%. In a second experiment, alachlor (0.5 µg) was dissolved into increasing volumes of water ranging from 1 mL to 100 mL.
To eliminate the possibility of non-specific binding of alachlor to the affinity column, other ¹⁴C-labeled analogs were also studied. These included acetanilide herbicides butachlor, acetochlor, metolachlor, and propachlor and the previously mentioned alachlor metabolites mercapturate and its methyl ester. The affinity column bound butachlor and acetochlor, but not metolachlor, propachlor, or mercapturate.

[6] = IC50 of alachlor divided by IC50 of analog x 100, bleed not stated

Molecule: CCc1cccc(CC)c1N(COC)C(=O)CS(=O)(=O)CCO
- reaction (cross-reactivity) with the antibodies, in words [1]: no cross-reactivity

Molecule: CCc1cccc(CC)c1N(COC)C(=O)CSC
- percent cross-reactivity [1, 6]: 188%
- reaction (cross-reactivity) with the antibodies, in words [1]: strong interaction

Molecule: CCc1cccc(CC)c1NC(=O)CSC
- reaction (cross-reactivity) with the antibodies, in words [1]: no cross-reactivity

Molecule: CCc1cccc(CC)c1N [2,6-diethylaniline]
- reaction (cross-reactivity) with the antibodies, in words [1]: no reaction

Molecule: CCc1cccc(CC)c1N(COC)C(=O)C[S+]([O-])CC(NC(C)=O)C(=O)O (stereo not shown) [S=O derivative]
- reaction (cross-reactivity) with the antibodies, in words [1]: significantly reduced or eliminated

Molecule: CCc1cccc(CC)c1N(CNC(C)=O)C(=O)CCl [amidochlor, 2-chloro-2′,6′-diethyl-N-acetamidomethyl acetanilide]
- reaction (cross-reactivity) with the antibodies, in words [1]: little to no interaction
- inhibition of the ELISA assay for butachlor [2]: not
- inhibition of the ELISA assay for metolachlor [3]: not
- IC50 ([4]; amidochlor-HSA as the screening antigen, standards in DI water): 2 ppb
- IC50 ([4]; butachlor-HSA substituted for amidochlor-HSA as the screening antigen): 0.2 ppb
- inhibition of the ELISA assay for amidochlor [4]: inhibited

Molecule: CCCCOCN(C(=O)CCl)c1c(CC)cccc1CC [butachlor, 2-chloro-2′,6′-diethyl-N-(butoxymethyl)acetanilide]
- reaction (cross-reactivity) with the antibodies, in words [1]: little to no interaction
- binding by the affinity column [5]: bound
- IC50 ([2]; best antiserum, butachlor-HSA screening antigen, standards in DI water): 8 ppb
- inhibition of the ELISA assay for butachlor [2]: inhibited
- inhibition of the ELISA assay for metolachlor [3]: not
- inhibition of the ELISA assay for amidochlor [4]: not

Molecule: CCc1cccc(CC)c1N(COC)C(=O)CSCC(NC(=O)CCC(N)C(=O)O)C(=O)NCC(=O)O (stereo not shown) [glutathione conjugate of alachlor]
- percent cross-reactivity [1, 6]: 27.5%

Molecule: CCc1cccc(CC)c1N(COC)C(=O)CSCC(NC(C)=O)C(=O)O (stereo not shown) [mercapturate analog]
- percent cross-reactivity ([1]; bleed four): 18%
- percent cross-reactivity ([1]; bleed seven): 65%
- binding by the affinity column [5]: not

Molecule: CCc1cccc(CC)c1N(COC)C(=O)CSCC(NC(C)=O)C(=O)OC (stereo not shown) [methyl ester of the mercapturate]
- percent cross-reactivity [1, 6]: 89.7%
- binding by the affinity column [5]: Binding was observed

Molecule: CCc1cccc(C)c1N(C(=O)CCl)C(C)COC (stereo not shown) [metolachlor, 2-chloro-2′-ethyl-6′-methyl-N-(2-methoxy-1-methylethyl)acetanilide]
- reaction (cross-reactivity) with the antibodies, in words [1]: little to no interaction
- binding by the affinity column [5]: not
- inhibition of the ELISA assay for butachlor [2]: not
- IC50 ([3]; best antiserum, standards in DI water): 8 ppb
- inhibition of the ELISA assay for metolachlor [3]: inhibited
- inhibition of the ELISA assay for amidochlor [4]: not

Molecule: CCc1cccc(CC)c1N(COC)C(C)=O [norchloro-alachlor]
- percent cross-reactivity [1, 6]: 22%

Molecule: CCc1cccc(CC)c1NC(=O)CSCC(NC(C)=O)C(=O)O (stereo not shown) [secondary amide mercapturate]
- reaction (cross-reactivity) with the antibodies, in words [1]: significantly reduced or eliminated

Molecule: CCc1cccc(CC)c1N(COC)C(=O)CS(C)(=O)=O [sulfone analog]
- percent cross-reactivity [1, 6]: 9%

Molecule: CCc1cccc(CC)c1N(COC)C(=O)CS(=O)(=O)O [sulfonic acid]
- percent cross-reactivity [1, 6]: less than 2.5%
- reaction (cross-reactivity) with the antibodies, in words [1]: little reaction

Molecule: CCc1cccc(CC)c1N(COC)C(=O)C[S+](C)[O-] (stereo not shown) [sulfoxide analog]
- percent cross-reactivity [1, 6]: 15%

Molecule: CCc1cccc(CC)c1N(COC)C(=O)CSCC(=O)O [thioacetic acid conjugate of alachlor]
- percent cross-reactivity [1, 6]: 57.0%

Molecule: CCc1cccc(CC)c1NC(=O)CCl [α-chloro-2′,6′-diethylacetanilide]
- reaction (cross-reactivity) with the antibodies, in words [1]: no reaction

Molecule: oxanilic acid
- percent cross-reactivity [1, 6]: less than 2.5%
- reaction (cross-reactivity) with the antibodies, in words [1]: little reaction
